Test results from publication PMC10137179, “Assessment of Covalently Binding Warhead Compounds in the Validation of the Cytomegalovirus Nuclear Egress Complex as an Antiviral Target” (Cells, 2023).

Legend:
[1] = system: HCMV AD169-GFP; assay: microbe, parasite or virus in culture; format: cell-based, human cytomegalovirus (HCMV); conditions: Human betaherpesvirus 5, AD169, 168 h, clinically relevant warheads, 0.1 µM to 50 µM, AD169-GFP-infected HFFs, 7 d p.i.
Experimental: Cytotoxicity of the analyzed compounds was determined by the Neutral Red dye uptake assay. A total of 1.35 × 10^5 HFFs per well were seeded in 96-well plates 1 d prior to analysis, cultivated overnight until cells were confluent and then incubated with compounds for 7 days. The assay was performed as described previously using 40 μg/mL Neutral Red (Sigma Aldrich). The quantity of dye incorporation was determined using the Victor X4 microplate reader (PerkinElmer, Waltham, MA, USA) by fluorescence measurement at 560/630 nm for excitation/emission, respectively. To assess antiviral activity of compounds, HFFs seeded in 96-well plates (1.35 × 10^5 HFFs per well) were infected with HCMV AD169-GFP or TB40-IE2-YFP to reach 25–50% infected cells at 7 days post-infection (d p.i.). After incubation with the infectious inoculum for 1.5 h at 37 °C, compounds were added in serial dilutions. At 7 d p.i., cells were fixed for 10 min at room temperature using 10% formalin. Finally, cells were washed once with PBS followed by automated fluorescence quantitation.
Seeking for a novel group of potential antiviral agents, small molecules with covalent protein-binding activity were investigated. These small molecules, originally developed as kinase inhibitors, carry a so-called warhead moiety as an important functional group, such as the prototype afatinib (Figure 1A, red circle). In this study, a series of newly generated warhead compounds (most of which are the property of B.K./Lead Discovery Center, Dortmund, Germany) were used for an evaluation of putative antiviral and core NEC-inhibitory properties. In a first step, the antiviral activity of warheads was analyzed against HCMV TB40-IE2-YFP (Figure 1B) and AD169-GFP (Figure 1C). To this end, HFFs were infected with either of the two viral strains before the GFP or YFP reporter signals were measured at 7 d p.i. (in parallel, putative compound cytotoxicity was determined by Neutral Red assay). The HCMVs AD169-GFP and TB40-IE2-YFP, based on BAC-derived recombinants of the laboratory strains AD169 and TB40, respectively, were both propagated on HFFs, and the produced stocks were then used as two reporter viruses for the assessement of antiviral drug activity. While strain AD169 is mainly restricted in its tropism to fibroblasts, TB40 tropism can be extended to fibroblasts and epithelial and endothelial cells. Here, the use of two strains was intended to illustrate the assumption that antiviral activity of these warhead compounds may be directed to conserved viral target proteins, thus pointing out a minor impact of strains.
(A) Chemical structure of a clinically approved prototype of covalently binding warhead inhibitors, […], afatinib/Gilotrif®. The red circle identifies a functionally active α-, β-unsaturated carbonyl group. (B) At 7 d p.i., compounds were analyzed for their cytotoxicity (orange) and antiviral activity (blue) during HCMV infection, using TB40-IE2-YFP as a reporter virus. Cell viability was assessed through Neutral Red staining of uninfected cells. Measurements were performed in quadruplicate (YFP fluorometry) or triplicate (Neutral Red assay), and standard deviations of mean values are given; EC50, CC50 and SI values are indicated accordingly. (C) In a parallel series of analyses, HCMV AD169-GFP was used as another reporter virus representing a second viral strain. […] HCMV AD169-GFP-infected HFFs were treated with 0.1 µM to 50 µM of the compounds (in parallel Neutral Red assay, 0.1 µM to 100 µM), before the signal assessments were performed at 7 d p.i.

[2] = molecular target: T1, HCMV pUL50-HA + pUL53-Flag (Human cytomegalovirus, UniProt P16791); assay: Confocal imaging of core NEC localization in cotransfected HeLa cells, HCMV; format: cell-based; conditions: 4 µM, 3 d p.t.
T1 construct: expressed in transfected cells; host or cells: HeLa
T1 sequence (P16791 whole entry): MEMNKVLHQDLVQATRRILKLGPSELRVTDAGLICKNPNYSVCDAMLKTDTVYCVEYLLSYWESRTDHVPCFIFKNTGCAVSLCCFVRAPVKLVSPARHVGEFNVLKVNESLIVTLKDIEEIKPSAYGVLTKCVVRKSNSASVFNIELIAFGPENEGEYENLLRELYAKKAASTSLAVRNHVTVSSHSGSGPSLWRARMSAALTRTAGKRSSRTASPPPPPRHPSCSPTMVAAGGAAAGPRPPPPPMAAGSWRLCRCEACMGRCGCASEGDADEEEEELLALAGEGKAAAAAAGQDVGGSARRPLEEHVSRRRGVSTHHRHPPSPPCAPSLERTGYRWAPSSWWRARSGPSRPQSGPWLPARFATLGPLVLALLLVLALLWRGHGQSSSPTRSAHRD
Experimental: (§1) HFF or HFF-UL50 cells, either Dox-induced or uninduced, were seeded in 6-well plates with a density of 2 × 10^5 cells per well, grown on coverslips and infected with HCMV AD169 or AD169 ∆UL50-ΣUL53. For infection experiments with the recombinant virus, different Shield-1 and Dox conditions were analyzed. Antivirals were added post-infection as described for the experiments. For transfection experiments, HeLa cells were seeded on coverslips in 6-well plates with a density of 3.25 × 10^5 cells per well for cotransfection with the indicated NEC expression plasmids (HSV-1 HA-UL34 + Flag-UL31, HCMV pUL50-HA + pUL53-Flag and EBV HA-BFRF1 + Flag-BFLF2). At indicated time points after virus infection, or 3 days post-transfection, cells were fixed, applied for IF staining as described previously and analyzed using a TCS SP5 confocal laser-scanning microscope with Leica LAS AF software (Leica Microsystems, Wetzlar, Germany). […] The device features a Leica photomultiplier tube (PMT) and a hybrid detector (HyD). Images were further processed using Photoshop CS5 (Adobe Inc., San José, CA, USA). […] Microscopic counting was performed for quantitation of colocalization patterns of two different proteins, as achieved by counting 50 cells per biological triplicate. […]

[3] = molecular target: T2, EBV HA-BFRF1 + Flag-BFLF2 (Epstein-Barr virus, UniProt P03185+P0CK47); assay: Confocal imaging of core NEC localization in cotransfected HeLa cells, EBV; format: cell-based; conditions: 4 µM, 3 d p.t.
T2 construct: expressed in transfected cells; host or cells: HeLa
T2 sequence (P03185 whole entry): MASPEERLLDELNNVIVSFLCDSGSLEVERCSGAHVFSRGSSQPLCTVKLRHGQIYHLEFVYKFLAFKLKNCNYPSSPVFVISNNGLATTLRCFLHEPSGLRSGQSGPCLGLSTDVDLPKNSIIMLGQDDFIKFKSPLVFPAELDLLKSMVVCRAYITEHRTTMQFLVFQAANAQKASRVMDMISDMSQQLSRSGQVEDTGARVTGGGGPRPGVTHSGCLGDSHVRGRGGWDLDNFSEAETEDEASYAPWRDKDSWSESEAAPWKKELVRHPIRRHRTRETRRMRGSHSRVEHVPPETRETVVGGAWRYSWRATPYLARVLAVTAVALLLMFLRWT
T2 sequence (P0CK47 whole entry): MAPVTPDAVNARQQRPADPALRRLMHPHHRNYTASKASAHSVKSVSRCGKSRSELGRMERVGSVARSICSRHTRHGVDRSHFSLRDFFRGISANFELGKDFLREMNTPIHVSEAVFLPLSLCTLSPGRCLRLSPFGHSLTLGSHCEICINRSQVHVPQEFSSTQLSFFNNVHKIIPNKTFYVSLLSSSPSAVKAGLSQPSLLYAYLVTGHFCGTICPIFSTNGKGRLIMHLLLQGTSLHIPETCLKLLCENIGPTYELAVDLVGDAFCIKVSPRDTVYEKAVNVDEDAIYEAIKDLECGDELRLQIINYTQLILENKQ
Experimental: as §1

[4] = molecular target: T3, HSV-1 HA-UL34 + Flag-UL31 (Human herpesvirus 1, UniProt P10215+P10218); assay: Confocal imaging of core NEC localization in cotransfected HeLa cells, HSV-1; format: cell-based; conditions: 4 µM, 3 d p.t.
T3 construct: expressed in transfected cells; host or cells: HeLa
T3 sequence (P10215 whole entry): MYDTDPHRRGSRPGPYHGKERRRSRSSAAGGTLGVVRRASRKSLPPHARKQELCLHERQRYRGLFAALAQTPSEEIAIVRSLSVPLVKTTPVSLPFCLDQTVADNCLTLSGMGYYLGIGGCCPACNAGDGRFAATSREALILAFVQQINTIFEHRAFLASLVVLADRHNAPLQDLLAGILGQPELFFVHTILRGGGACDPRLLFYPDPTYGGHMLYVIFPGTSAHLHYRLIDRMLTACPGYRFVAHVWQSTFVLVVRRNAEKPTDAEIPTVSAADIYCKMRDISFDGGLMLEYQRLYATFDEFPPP
T3 sequence (P10218 whole entry): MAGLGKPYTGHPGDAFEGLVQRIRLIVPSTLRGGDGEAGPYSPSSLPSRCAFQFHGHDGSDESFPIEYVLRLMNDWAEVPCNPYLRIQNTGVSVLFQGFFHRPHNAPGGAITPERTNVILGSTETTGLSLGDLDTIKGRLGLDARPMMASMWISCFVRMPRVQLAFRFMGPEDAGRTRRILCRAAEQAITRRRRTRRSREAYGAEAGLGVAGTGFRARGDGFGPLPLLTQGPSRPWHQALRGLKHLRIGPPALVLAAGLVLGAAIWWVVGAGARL
Experimental: as §1

C=CC(=O)N1CCC[C@@H](n2nc(-c3ccc(Oc4ccccc4)cc3)c3c(N)ncnc32)C1 [ibrutinib]
EC50 [1]: 16 ± 6 µM
core NEC nuclear rim localization (in words) [2]: predominant dot-like aggregation and speckle formation
core NEC nuclear rim localization (in words) [3]: did not show any similar alteration in nuclear rim localization
core NEC nuclear rim localization (in words) [4]: did not show any similar alteration in nuclear rim localization
